Test results: patent US20090197811A1, “ORALLY ADMINISTERED PEPTIDES TO IMPROVE OR PREVENT HEPATIC FIBROSIS” (University of Southern California, priority 2007, published 2009)
Non-standard residues stand in square brackets, D forms with d.

How the values were obtained:
C57Bl/6J mice [1] = test: Western diet model: biochemical findings and liver and body weights; format: in vivo, mouse; settings: for GSH / TBARS: liver; for ALT / AST / Adiponectin / Cholesterol / Glucose / Insulin / Leptin / Triglycerides: serum
Method: SR141716 was a kind gift from Sanofi-Aventis, France. SR141716 was dissolved in water with 0.1% Tween and given daily by gavage for 10 weeks. D-4F is an 18-mer of D-amino acids (Ac-D-W-F-K-A-F-Y-D-K-V-A-E-K-F-K-E-A-F-NH2)^4 (SEQ ID NO: 1) that was commercially synthesized (A & A Laboratories, San Diego Calif.) with 80% purity. D-4F was dissolved in the drinking water at a concentration of 60 μg/ml water for a calculated dose corrected for drug purity of 125 μg D-4F/mouse/day.
The high fat diet used was the RD “Western diet” (Research Diets, D12079B), which contains 41% of calories from fat, 43% calories from carbohydrate, and 17% of calories from protein); this diet was designed to approximate the “typical” human diet of North America and Europe.
(§1) Studies were performed in male C5713L/6J mice (Jackson Laboratories, Bar Harbor Me.). Six groups were studied (n=3-5, see FIG. 1) with 4 mice per group at the outset, except for group 2, which was started with n=5; 1 mouse died in group 1. Groups 1, 2, and 3 received the Western diet for 9.5 months; during the last 2.5 months of the 9.5 months, group 2 received SR141716 10 mg/kg/day i.g., and group 3 received D-4F, 125 μg/mouse/day, in the drinking water. Groups 4, 5, and 6 received the Western diet for 7 months followed by standard chow for 2.5 months; during the 2.5 months on standard chow, group 5 received SR141716 and group 6 received D-4F as described for groups 2 and 3, respectively. Additional control groups were studied: 6-month old C57Bl/6J mice as age-matched controls (n=5) and C57Bl/6J mice that received the Western diet for 6 months (n=6).
Serum aspartate amino transferase (AST) and alanine aminotransferase (ALT) were measured with the Infinity AST and ALT liquid assay reagent (Thermo Electron Corporation, Louisville Colo., cat #TR70121 and TR71121). Serum triglycerides and cholesterol were measured with the Infinity cholesterol assay reagent (Thermo Electron Corporation, Louisville Colo., cat #TR22321 and TR13315). Serum glucose was measured with the Glucose (HK) assay kit (Sigma, St. Louis, Mo., cat #GAHK-20). Serum insulin was measured with the Mercodia Ultrasensitive mouse insulin ELISA kit (ALPCO Diagnostics, Salem N.H., cat #10 1150-01). The homeostasis model assessment insulin resistance index (HOMA-IR) was calculated as [fasting glucose (mmol/liter)*fasting insulin (microunits/ml)]/22.5^17, 18. Serum leptin was measured with the TiterZyme EIA mouse leptin kit (Assay Designs Inc, Ann Arbor Mich., cat #900-019). Serum adiponectin was measured with the mouse adiponectin kit (Biovendor LLC, Candler N.C., cat #RD 293023100). Thiobarbituric acid reactive substance (TBARS) was measured as previously described^19, 20; in brief, liver was homogenized and diluted 1:1 in 10% ice cold trichloroacetic acid. 0.5 ml supernatant or of a standard solution of 1,1,3,3-tetraethoxypropane was mixed with 0.5 ml of 0.6% (w/v) 4,6-dihydroxy-2-thiopyrimidine. The solution was boiled for 30 min, cooled and centrifuged. Absorbance was measured at 532 nm with a Shimadzu TV-2101 PC spectrophotometer. To measure hepatic glutathione (GSH), liver was homogenized and diluted 1:1 in 10% ice cold trichloroacetic acid. GSH in the supernatant was measured according to the recycling assay of Tietze^21.

C57Bl/6J mice [2] = test: Western diet model: fibrosis by Sirius red whole-section-scanning morphometric image analysis; format: in vivo, mouse
Method: as §1
Sirius red staining was performed by the Morphology core of the USC-UCLA Research Center for Alcoholic Liver and Pancreatic Diseases. α-Smooth muscle actin.
Tissue sections stained with Sirius red were scanned by a third-generation Automated Cellular Imaging System (ACIS III), a highly automated microscope-based digital imaging system (Carl Zeiss MicroImaging AIS Inc., Aliso Viejo Calif.). The color of the Sirius red staining in the digitized tissue sections was determined and applied to a pre-existing algorithm that provides the area of a target color in μm^2. The outline of each digitized tissue section was manually traced using the computer's mouse. Areas of large portal tracts and central veins were also outlined manually. The total area (μm^2) of each tissue section and of the total area of large portal tracts and central veins were determined by the image analysis system. The area of fibrosis was calculated as [total area stained by Sirius red minus perivascular staining] as a percentage of the size of the tissue section. This method has the advantage of scanning the entire section, rather than measuring fibrosis in randomly chosen fields.

[3] = 7 months Western diet followed by 2.5 months Western diet + drug
[4] = 7 months Western diet followed by 2.5 months chow + drug
[5] = group 3 vs group 1, Western diet 9.5 months, D-4F last 2.5 months

Ac-D-W-F-K-A-F-Y-D-K-V-A-E-K-F-K-E-A-F-NH2 (Ac-[dD][dW][dF][dK][dA][dF][dY][dD][dK][dV][dA][dE][dK][dF][dK][dE][dA][dF]-NH2; not fully specified; printed as Ac-D-W-F-K-A-F-Y-D-K-V-A-E-K-F-K-E-A-F-NH2) [D-4F]
Body weight (C57Bl/6J mice [1]; [3]): 39.5 ± 0.8 g | HOMA-IR (C57Bl/6J mice [1]; [3]): 63.3 ± 23.5 | Liver weight (C57Bl/6J mice [1]; [3]): 2.42 ± 0.04 g | Body weight (C57Bl/6J mice [1]; [4]): 35.9 ± 3.2 g | HOMA-IR (C57Bl/6J mice [1]; [4]): 16.5 ± 2.2 | Liver weight (C57Bl/6J mice [1]; [4]): 1.67 ± 0.19 g | body weight, liver weight, serum transaminases, hyperglycemia, hyperinsulinemia, insulin resistance, overall hepatic oxidative stress (C57Bl/6J mice [1]; [5]): no improvement | leptin levels compared to mice on Western diet alone (C57Bl/6J mice [1]; [5]): decreased by half | total cholesterol compared to mice on Western diet alone (C57Bl/6J mice [1]; [5]): decreased by half | GSH (C57Bl/6J mice [1]; [3]): 50.1 ± 5.8 nmole/mg protein | TBARS (C57Bl/6J mice [1]; [3]): 29.4 ± 2.4 nmol/g tissue | GSH (C57Bl/6J mice [1]; [4]): 82.8 ± 5.2 nmole/mg protein | TBARS (C57Bl/6J mice [1]; [4]): 20.0 ± 0.6 nmol/g tissue | ALT (C57Bl/6J mice [1]; [3]): 277.3 ± 18.2 U/L | AST (C57Bl/6J mice [1]; [3]): 211.9 ± 19.1 U/L | Adiponectin (C57Bl/6J mice [1]; [3]): 15.3 ± 1.0 µg/mL | Cholesterol (C57Bl/6J mice [1]; [3]): 146.8 ± 2.1 mg/dL | Glucose (C57Bl/6J mice [1]; [3]): 231.2 ± 18.0 mg/dL | Insulin (C57Bl/6J mice [1]; [3]): 3.7 ± 1.1 ng/mL | Leptin (C57Bl/6J mice [1]; [3]): 17.49 ± 1.41 ng/mL | Triglycerides (C57Bl/6J mice [1]; [3]): 40.0 ± 6.7 mg/dL | ALT (C57Bl/6J mice [1]; [4]): 69.1 ± 21.5 U/L | AST (C57Bl/6J mice [1]; [4]): 104.2 ± 22.4 U/L | Adiponectin (C57Bl/6J mice [1]; [4]): 18.52 ± 1.5 µg/mL | Cholesterol (C57Bl/6J mice [1]; [4]): 120.8 ± 2.9 mg/dL | Glucose (C57Bl/6J mice [1]; [4]): 159.2 ± 2.4 mg/dL | Insulin (C57Bl/6J mice [1]; [4]): 1.46 ± 0.2 ng/mL | Leptin (C57Bl/6J mice [1]; [4]): 8.70 ± 1.43 ng/mL | Triglycerides (C57Bl/6J mice [1]; [4]): 49.1 ± 1.4 mg/dL | fibrosis (surface area positive for Sirius red staining) (C57Bl/6J mice [2]; group 3: Western diet 9.5 months, D-4F 125 μg/mouse/day in drinking water last 2.5 months, group 1 without drug 4.6±1.9%): 1.25% | fibrosis (surface area positive for Sirius red staining) (C57Bl/6J mice [2]; group 6: 7 months Western diet, then 2.5 months chow plus D-4F, group 4 chow alone 2.8±0.7%): 0.9±0.2% | progression of fibrosis after onset of steatohepatitis (C57Bl/6J mice [2]; summary statement): prevented progression of fibrosis
